{"source": "paper PMC7224190", "about": "“Pharmacological inhibition of PRMT7 links arginine monomethylation to the cellular stress response” (Nature Communications, 2020)", "experiment_in_all_cases": "biochemical", "design_in_all_cases": "radiometric methyltransferase selectivity assay with tritiated SAM, per cent activity", "conditions_in_all_cases": "read-out: % of control remaining", "key": {"ASH1L": {"target": "ASH1L (Homo sapiens, UniProt Q9NR48)", "how_it_was_run": "(§1)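 Radiometric methyltransferase assays with ³H-SAM and substrate near apparent Km, compound tested at 1 and 10 μM. Methyl incorporation into biotinylated substrate read by scintillation proximity after guanidine quench; no-compound = 100%, no-enzyme = 0% activity.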"}, "NSD3": {"target": "T1, NSD3 (Homo sapiens, UniProt Q9BZ95)", "T1 sequence (Q9BZ95 1-1437)": "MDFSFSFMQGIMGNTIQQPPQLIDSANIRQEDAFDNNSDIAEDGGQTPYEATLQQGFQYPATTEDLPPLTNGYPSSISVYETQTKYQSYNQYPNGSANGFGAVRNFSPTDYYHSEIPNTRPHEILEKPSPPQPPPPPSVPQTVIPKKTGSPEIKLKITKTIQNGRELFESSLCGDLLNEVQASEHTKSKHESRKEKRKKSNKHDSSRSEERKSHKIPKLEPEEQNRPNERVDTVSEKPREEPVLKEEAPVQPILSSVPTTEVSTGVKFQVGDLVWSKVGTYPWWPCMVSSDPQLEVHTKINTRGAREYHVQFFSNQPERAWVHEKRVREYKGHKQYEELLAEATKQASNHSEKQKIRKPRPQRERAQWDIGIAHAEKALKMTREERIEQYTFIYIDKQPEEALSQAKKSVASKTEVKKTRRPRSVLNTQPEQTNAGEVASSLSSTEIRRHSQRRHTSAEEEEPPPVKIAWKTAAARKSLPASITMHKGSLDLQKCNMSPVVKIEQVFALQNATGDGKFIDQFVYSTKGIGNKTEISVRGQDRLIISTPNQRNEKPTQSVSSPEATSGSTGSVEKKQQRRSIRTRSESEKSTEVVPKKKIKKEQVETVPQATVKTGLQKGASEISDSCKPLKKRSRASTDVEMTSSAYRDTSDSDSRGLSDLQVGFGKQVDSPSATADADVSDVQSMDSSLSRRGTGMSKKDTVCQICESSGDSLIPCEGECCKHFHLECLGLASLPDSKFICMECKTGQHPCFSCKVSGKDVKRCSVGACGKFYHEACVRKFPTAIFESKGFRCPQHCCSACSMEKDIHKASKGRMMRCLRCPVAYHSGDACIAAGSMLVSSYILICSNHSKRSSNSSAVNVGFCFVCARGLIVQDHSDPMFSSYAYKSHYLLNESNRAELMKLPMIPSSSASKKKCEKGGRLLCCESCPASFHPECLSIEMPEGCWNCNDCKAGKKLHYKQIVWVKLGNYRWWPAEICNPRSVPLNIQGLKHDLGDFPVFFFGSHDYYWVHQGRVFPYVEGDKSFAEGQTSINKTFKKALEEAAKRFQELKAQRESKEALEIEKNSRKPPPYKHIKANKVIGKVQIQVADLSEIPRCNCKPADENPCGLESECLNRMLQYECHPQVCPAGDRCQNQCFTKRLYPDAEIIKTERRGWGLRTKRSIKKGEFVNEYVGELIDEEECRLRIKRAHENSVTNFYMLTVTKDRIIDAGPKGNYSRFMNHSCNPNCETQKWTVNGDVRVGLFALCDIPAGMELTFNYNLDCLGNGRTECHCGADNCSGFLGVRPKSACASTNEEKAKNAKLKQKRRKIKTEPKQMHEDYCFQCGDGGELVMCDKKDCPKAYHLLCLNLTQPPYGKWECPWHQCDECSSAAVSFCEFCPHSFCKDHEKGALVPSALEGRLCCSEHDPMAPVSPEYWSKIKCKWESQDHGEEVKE", "how_it_was_run": "as §1"}, "PRMT3": {"target": "PRMT3 (Homo sapiens, UniProt O60678)", "sequence (O60678 whole entry)": "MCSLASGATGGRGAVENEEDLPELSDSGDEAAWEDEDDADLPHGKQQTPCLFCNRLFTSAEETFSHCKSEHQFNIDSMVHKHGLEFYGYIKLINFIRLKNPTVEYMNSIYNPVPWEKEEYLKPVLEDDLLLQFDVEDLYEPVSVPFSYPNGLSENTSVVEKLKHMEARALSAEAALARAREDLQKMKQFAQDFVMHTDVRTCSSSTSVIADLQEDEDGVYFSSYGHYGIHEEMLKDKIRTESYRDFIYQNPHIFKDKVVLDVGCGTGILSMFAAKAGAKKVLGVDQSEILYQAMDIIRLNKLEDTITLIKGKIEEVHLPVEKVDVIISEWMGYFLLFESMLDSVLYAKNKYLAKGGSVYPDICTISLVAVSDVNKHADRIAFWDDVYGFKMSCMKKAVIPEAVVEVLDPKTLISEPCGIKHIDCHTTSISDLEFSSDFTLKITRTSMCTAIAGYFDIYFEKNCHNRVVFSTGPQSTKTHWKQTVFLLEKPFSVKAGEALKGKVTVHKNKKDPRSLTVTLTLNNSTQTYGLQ", "how_it_was_run": "as §1"}, "PRMT6": {"target": "PRMT6 (Homo sapiens, UniProt Q96LA8)", "sequence (Q96LA8 whole entry)": "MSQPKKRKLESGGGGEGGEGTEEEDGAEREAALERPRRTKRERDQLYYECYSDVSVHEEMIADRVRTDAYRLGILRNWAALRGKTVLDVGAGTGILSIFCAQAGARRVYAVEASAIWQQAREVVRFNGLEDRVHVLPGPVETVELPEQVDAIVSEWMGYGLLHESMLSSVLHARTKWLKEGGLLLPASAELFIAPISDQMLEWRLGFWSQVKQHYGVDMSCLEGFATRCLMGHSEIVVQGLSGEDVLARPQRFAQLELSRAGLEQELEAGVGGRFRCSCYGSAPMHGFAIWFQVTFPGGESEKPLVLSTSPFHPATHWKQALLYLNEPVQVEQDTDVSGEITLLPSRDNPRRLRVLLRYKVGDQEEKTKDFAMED", "how_it_was_run": "as §1"}, "PRMT8": {"target": "PRMT8 (Homo sapiens, UniProt Q9NR22)", "sequence (Q9NR22 whole entry)": "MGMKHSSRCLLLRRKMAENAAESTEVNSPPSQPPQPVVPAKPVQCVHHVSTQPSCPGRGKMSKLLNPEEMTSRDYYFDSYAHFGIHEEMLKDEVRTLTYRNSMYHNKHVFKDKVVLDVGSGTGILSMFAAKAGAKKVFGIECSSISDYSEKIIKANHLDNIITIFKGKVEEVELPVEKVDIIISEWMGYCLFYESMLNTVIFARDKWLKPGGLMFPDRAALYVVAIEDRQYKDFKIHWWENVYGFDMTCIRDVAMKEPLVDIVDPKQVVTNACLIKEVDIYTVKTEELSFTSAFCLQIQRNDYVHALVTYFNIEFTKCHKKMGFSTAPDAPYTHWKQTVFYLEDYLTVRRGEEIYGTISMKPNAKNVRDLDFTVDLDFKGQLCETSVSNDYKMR", "how_it_was_run": "as §1"}, "SUV420H1": {"target": "T2, SUV420H1 (Homo sapiens, UniProt Q4FZB7)", "T2 construct": "gene KMT5B", "T2 sequence (Q4FZB7 whole entry)": "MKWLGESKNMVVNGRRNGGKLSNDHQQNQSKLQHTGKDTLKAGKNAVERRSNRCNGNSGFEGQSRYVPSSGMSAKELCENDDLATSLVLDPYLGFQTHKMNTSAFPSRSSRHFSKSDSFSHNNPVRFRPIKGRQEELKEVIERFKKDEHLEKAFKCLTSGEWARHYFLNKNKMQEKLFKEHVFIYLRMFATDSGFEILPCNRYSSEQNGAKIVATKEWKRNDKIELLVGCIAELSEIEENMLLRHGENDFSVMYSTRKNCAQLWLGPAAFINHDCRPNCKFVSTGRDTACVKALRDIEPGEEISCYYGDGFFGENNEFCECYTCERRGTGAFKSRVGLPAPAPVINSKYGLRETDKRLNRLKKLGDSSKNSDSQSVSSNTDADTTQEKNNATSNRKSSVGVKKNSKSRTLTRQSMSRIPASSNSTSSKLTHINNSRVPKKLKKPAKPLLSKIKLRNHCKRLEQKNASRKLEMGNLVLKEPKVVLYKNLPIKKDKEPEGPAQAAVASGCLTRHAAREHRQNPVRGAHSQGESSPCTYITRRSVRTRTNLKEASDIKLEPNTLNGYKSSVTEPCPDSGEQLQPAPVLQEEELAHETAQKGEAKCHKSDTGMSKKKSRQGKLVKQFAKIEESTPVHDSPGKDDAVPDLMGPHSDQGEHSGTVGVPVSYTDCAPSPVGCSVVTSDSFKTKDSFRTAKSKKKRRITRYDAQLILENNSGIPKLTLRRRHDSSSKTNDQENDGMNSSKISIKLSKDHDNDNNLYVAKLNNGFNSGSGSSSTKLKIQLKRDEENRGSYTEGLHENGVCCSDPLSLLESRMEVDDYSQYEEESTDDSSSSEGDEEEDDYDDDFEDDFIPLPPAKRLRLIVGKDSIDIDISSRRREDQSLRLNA", "how_it_was_run": "as §1"}}, "data": [{"smiles": "Nc1ncnc2c1ncn2[C@@H]1O[C@H](CSCCCCNCc2cccc(-c3ccc(Cl)cc3)c2)[C@@H](O)[C@H]1O", "note": "[SGC8158]", "values": [{"measurement": "remaining activity at 1 µM", "setting": "ASH1L", "value": 96, "unit": "%"}, {"measurement": "remaining activity at 10 µM", "setting": "ASH1L", "value": 97, "unit": "%"}, {"measurement": "remaining activity at 1 µM", "setting": "NSD3", "value": 97, "unit": "%"}, {"measurement": "remaining activity at 10 µM", "setting": "NSD3", "value": 95, "unit": "%"}, {"measurement": "remaining activity at 1 µM", "setting": "PRMT3", "value": 57, "unit": "%"}, {"measurement": "remaining activity at 10 µM", "setting": "PRMT3", "value": 6, "unit": "%"}, {"measurement": "remaining activity at 1 µM", "setting": "PRMT6", "value": 100, "unit": "%"}, {"measurement": "remaining activity at 10 µM", "setting": "PRMT6", "value": 58, "unit": "%"}, {"measurement": "remaining activity at 1 µM", "setting": "PRMT8", "value": 92, "unit": "%"}, {"measurement": "remaining activity at 10 µM", "setting": "PRMT8", "value": 45, "unit": "%"}, {"measurement": "remaining activity at 1 µM", "setting": "SUV420H1", "value": 96, "unit": "%"}, {"measurement": "remaining activity at 10 µM", "setting": "SUV420H1", "value": 87, "unit": "%"}]}, {"smiles": "CC1(C)O[C@@H]2[C@H](O1)[C@@H](CSCCCCNCc1cccc(-c3ccc(Cl)cc3)c1)O[C@H]2n1cnc2c(N)ncnc21", "note": "[SGC8158N]", "values": [{"measurement": "remaining activity at 1 µM", "setting": "ASH1L", "value": 99, "unit": "%"}, {"measurement": "remaining activity at 10 µM", "setting": "ASH1L", "value": 102, "unit": "%"}, {"measurement": "remaining activity at 1 µM", "setting": "NSD3", "value": 100, "unit": "%"}, {"measurement": "remaining activity at 10 µM", "setting": "NSD3", "value": 97, "unit": "%"}, {"measurement": "remaining activity at 1 µM", "setting": "PRMT3", "value": 96, "unit": "%"}, {"measurement": "remaining activity at 10 µM", "setting": "PRMT3", "value": 96, "unit": "%"}, {"measurement": "remaining activity at 1 µM", "setting": "PRMT6", "value": 94, "unit": "%"}, {"measurement": "remaining activity at 10 µM", "setting": "PRMT6", "value": 87, "unit": "%"}, {"measurement": "remaining activity at 1 µM", "setting": "PRMT8", "value": 97, "unit": "%"}, {"measurement": "remaining activity at 10 µM", "setting": "PRMT8", "value": 97, "unit": "%"}, {"measurement": "remaining activity at 1 µM", "setting": "SUV420H1", "value": 99, "unit": "%"}, {"measurement": "remaining activity at 10 µM", "setting": "SUV420H1", "value": 102, "unit": "%"}]}]}
